In brackets after ≈: the same amount, converted by molar mass. Where a SMILES comes first, the peptide text is derived from it. [ ]: non-standard residue; d: D form. Orn = NCCC[C@H](N)C(=O)O
How the values were obtained:
[1] = tested on: oxazolone-induced ear edema; test: Oxazolone-induced skin inflammation (allergic dermatitis model); conditions: for ear thickness and ear punch weight: mice, topical 0.5%, 1% or 2% w/v on right ear, 24 h after treatment
Experimental: ICR mice (male, 4–6 weeks old, and 18–22 g) were obtained from the Experimental Animal Center of Harbin Medical University.
4-Ethoxymethylene-2-phenyl-2-oxazolin-5-one (oxazolone, OXA) was used to induce ear edema in mice [66]. […] The fur was clipped from each animal’s abdomen the day before the experiment was conducted. On the day of the experiment (day 0), 50 ul 3% oxazolone induction solution (prepared in a 5:1 (v/v) mixture of acetone: corn oil carrier) was applied to all mice as a single topical application to the shaved abdomen. After 5 days, 50 µL of 1% oxazolone challenge solution (prepared in acetone) was applied as a single topical application to the dorsal area of the right ear for 1 h. Of the peptide solution, vehicle control or positive control (dexamethasone) solution 20 µL was applied topically to the dorsal area of the right ear. The left ear was used as a control. 24 h later, the mice were euthanized by cervical dislocation under ether anesthesia, and two ear punches (6 mm, i.d.) were collected and weighed. The degree of edema and the increase in ear thickness were determined by the increase in the weight and thickness of the right ear punch when compared with that of the left ear.
(4) Ear weight increase %=[Right ear weight (mg)− Left ear weight (mg)]/Left ear weight (mg)× 100%
(5) Increase of the ear thickness% =Right ear thickness (mm)−Left ear thinkcess (mm)/Left ear thickness×100%
Mouse ear tissues were ground in liquid nitrogen and 1 mL of Trizol was added. The total RNA content in each group of ears was extracted using the conventional Trizol method. qRT-PCR was used to measure the mRNA level of inflammatory cytokines TNF-α, IL-6 and IL-1β in mouse ear tissues. One microgram total of RNA was reverse transcribed using M-MLV reverse transcriptase (Takara, Japan). qRT-PCR was performed using a SYBR Green Mix kit (Takara, Japan) with a 7500 Real-Time PCR system according to the manufacturer’s instructions. The mRNA expression levels were normalized to β-actin using the (2^−∆∆Ct) method. The gene expression was normalized to the corresponding mGAPDH level. […]

[2] = tested on: gram-positive strains tested; test: organism not typed; format: cell-based; conditions: 20 h
Experimental: (§1) Briefly, the bacteria were incubated overnight at 37 °C with constant shaking at 220 rpm, then were transferred to new MH broth (MHB) medium until they reached the logarithmic phase of growth. The bacteria were then diluted to 10^5 (CFU)/mL in MHB. The peptides were dissolved and diluted in 0.01% acetic acid and 0.2% bovine serum albumin (BSA) at various concentrations (0.5–128 μM) in each well of sterile 96-well plates and incubated for 20 h at 37 °C. […] The test was repeated three times.

[3] = tested on: E. coli UB 1005; test: microbe, parasite or virus in culture; format: cell-based, Escherichia coli; conditions: UB 1005, 20 h
Experimental: (§2) The test strains, including Gram-negative E. coli ATCC25922, E. coli ATCC 1005, S. typhimurium C7731, P. aeruginosa ATCC 27853, S. Typhimurium 14028, Gram-positive S. aureus ATCC29213, S. aureus ATCC 25923, S. epidermidis ATCC 12228 and S. aureus 43300, were obtained from the School of Veterinary Medicine, Northeast Agricultural University (Harbin, China).
as §1

[4] = tested on: E. coli 25922; test: microbe, parasite or virus in culture; format: cell-based, Escherichia coli; conditions: 25922, 20 h
Experimental: as §2, §1

[5] = tested on: S. aureus 29213; test: microbe, parasite or virus in culture; format: cell-based, Staphylococcus aureus; conditions: 29213, 20 h
Experimental: as §2, §1

[6] = tested on: S. aureus 25923; test: microbe, parasite or virus in culture; format: cell-based, Staphylococcus aureus; conditions: 25923, 20 h
Experimental: as §2, §1

[7] = tested on: E. coli ATCC 25,922; test: Flow cytometry membrane integrity assay (PI uptake); format: cell-based; conditions: PI 10 ug/mL, 30 min at 4 °C
Experimental: Figure 7 Flow cytometric analysis. Exponential phase E. coli cells were treated with GS, OIR3 and cellular fluorescence was analyzed by flow cytometry.
Membrane integrity assay. […] FACS flow cytometer (Becton–Dickinson, Franklin Lake, New Jersey, USA USA) was used to obtain the data with a laser excitation wavelength of 488 nm.

[8] = tested on: MRSA43300; test: microbe, parasite or virus in culture; format: cell-based, Methicillin-resistant Staphylococcus aureus; conditions: 20 h
Experimental: as §2, §1

[9] = tested on: lipopolysaccharide (LPS, derived from E. coli 055: B5); test: BODIPY-TR-cadaverine displacement assay (LPS binding)
Experimental: Figure 3 (A) The combining ability of OIR3 and gramicidin S (GS; 0.5 μM, 1 μM, 2 μM, […], 8 μM, 16 μM and 32 μM) with lipopolysaccharide (LPS). (B) SPR spectroscopy of the interaction kinetics of the peptides and LPS. The peptides were immobilized on a CM5 sensor chip as a ligand, and LPS was diluted in a series of concentrations (3.125, 6.25, 12.5, 25 and 50 μg/mL). Data shown are three independent experiments.
The BODIPY-TR-cadaverine (BC) displacement assay was previously used to quantify the binding affinities of test compounds to LPS [61]. The fluorescent dye BC is quenched by binding to LPS, causing its fluorescence to disappear. When the antimicrobial peptide is added, if the binding of the peptide to LPS is stronger, BODIPY-TR-cadaverine will be released and the fluorescence restored. Briefly, in a 96-well plate, an equal volume with a different concentration (0.5–64 μM) of peptide was added to a mixture (100 μL) of LPS (25 μg/mL) and BC (2.5 μg/mL) in Tris buffer (pH 7.4), and the background fluorescence was recorded (excitation wavelength 580 nm, emission wavelength 620 nm). The changes in fluorescence were recorded using a Tecan Infinite M200 PRO (Tecan, San Jose, CA, USA); polymyxin B was used as a positive control. Each test was performed independently, in triplicate.

[10] = tested on: all the 9 bacteria tested; test: Geometric mean of MICs, all 9 bacteria; format: cell-based; conditions: for GM MIC (range of Gram-negative and Gram-positive geometric means): Table 2; for tGM, geometric mean of the MICs against all the 9 bacteria: all 9 bacteria tested
Experimental: as §1

[11] = tested on: human red blood cells (hRBCs); test: Hemolysis assay; format: cell-based; conditions: red cells of human, 1 h
Experimental: Figure 2 (A) Hemolytic activity of the engineered peptides against human red blood cells (hRBCs). The hRBCs were incubated with equal amounts of the respective peptides dissolved in PBS for 1 h at 37 °C. (B) Cytotoxicity of the engineered peptides against RAW264.7. […] Data shown are three independent experiments.
The hemolytic activity of the peptides is determined by measuring the amount of hemoglobin released during the lysis of human erythrocytes at different concentrations of AMPs. Briefly, fresh, healthy human red blood cells (hRBCs) were collected and then washed three times with phosphate-buffered saline (PBS) buffer (pH 7.2) and centrifuged at 1000× g for 5 min. Each 50 µL sample of hRBCs was incubated with 50 µL of the respective peptide dissolved in PBS in a well of a 96-well plate for 1 h at 37 °C. After incubation, the samples were centrifuged at 1000× g for 5 min and the supernatants (50 μL) were transferred to a new 96-well microplate. The release of hemoglobin was measured by monitoring the OD at 570 nm (Tecan, Salzburg, Austria). Negative (hRBCs without AMP treatment) and positive (hRBCs treated with 0.1% TritonX-100) controls were used. The concentration of peptide that caused 5% hemolysis was considered the minimal hemolysis concentration (MHC). The test was repeated three times. The percent hemolysis was calculated using the following formula:(2) Percent hemolysis=A−A0/At−A0× 100% A0 and At represent 0% and 100% hemolysis as measured in 10 mM PBS and 0.2% Triton X-100, respectively.

[12] = tested on: gram-negative strains tested; test: Geometric mean of MICs, gram-negative strains; format: cell-based; conditions: 5 gram-negative strains; >128 apparently counted as 256; read-out: nGM (–), geometric mean of the MICs against gram-negative strains
Experimental: as §1

| Structure (SMILES) | ear thickness and ear punch weight [1] | pGM (+), geometric mean of the MICs against gram-positive strains [2] [µM] | MIC [3] [µM] | MIC [4] [µM] | MIC [5] [µM] | MIC [6] [µM] | percentage of PI-positive cells ([7]; 1/2× MIC (OIR3 1 µM, GS 2 µM)) [%] | percentage of PI-positive cells ([7]; 1× MIC (OIR3 2 µM, GS 4 µM)) [%] | percentage of PI-positive cells ([7]; 2× MIC (OIR3 4 µM, GS 8 µM)) [%] | MIC [8] [µM] | combining ability with LPS ([9]; all concentrations tested (0.5–32 μM)) | GM MIC (range of Gram-negative and Gram-positive geometric means) [10] [µM] | tGM, geometric mean of the MICs against all the 9 bacteria [10] [µM] | MHC5, minimum hemolytic concentration that induced ≥5% hemolysis [11] [µM] | MIC [12] [µM] | expression of mRNA of TNF-α, IL-1β and IL-6 in mouse ear tissue ([1]; qRT-PCR, oxazolone-induced skin inflammation) | LPS-binding activity ([9]; 2 μM peptide, BODIPY-TR-cadaverine displacement, LPS 25 μg/mL, Tris buffer pH 7.4) [%] | LPS neutralized (LPS-binding activity) ([9]; 4 μM peptide, BODIPY-TR-cadaverine displacement, LPS 25 μg/mL, Tris buffer pH 7.4) [%] |
| --- | --- | --- | --- | --- | --- | --- | --- | --- | --- | --- | --- | --- | --- | --- | --- | --- | --- | --- |
| CC(C)C[C@@H]1NC(=O)[C@H](CCCN)NC(=O)[C@H](C(C)C)NC(=O)[C@@H]2CCCN2C(=O)[C@@H](Cc2ccccc2)NC(=O)[C@H](CC(C)C)NC(=O)[C@H](CCCN)NC(=O)[C@H](C(C)C)NC(=O)[C@@H]2CCCN2C(=O)[C@@H](Cc2ccccc2)NC1=O [GS, gramicidin S, reference compound] (cyclo(V[Orn]L[dF]PV[Orn]L[dF]P)) | increased | 2 | 4 (≈ 4.57 µg/mL) | 4 (≈ 4.57 µg/mL) | 2 (≈ 2.28 µg/mL) | 2 (≈ 2.28 µg/mL) | 7.3 | 37.8 | 93.3 | 2 (≈ 2.28 µg/mL) | relatively low | 2 to 6.1 | 3.7 | 8 | 6.1 (≈ 6.96 µg/mL) | – | – | – |
| CC[C@H](C)[C@@H]1NC(=O)[C@H](CCCNC(=N)N)NC(=O)[C@H]([C@@H](C)CC)NC(=O)[C@@H]2CCCN2C(=O)[C@H](CCCNC(=N)N)NC(=O)[C@H]([C@@H](C)CC)NC(=O)[C@H](CCCNC(=N)N)NC(=O)[C@H]([C@@H](C)CC)NC(=O)[C@H](CCCNC(=N)N)NC(=O)[C@H]([C@@H](C)CC)NC(=O)[C@@H]2CCCN2C(=O)[C@H](CCCNC(=N)N)NC(=O)[C@H]([C@@H](C)CC)NC(=O)[C@H](CCCNC(=N)N)NC1=O [OIR3] (cyclo(IRIRIRPIRIRIRP)) | significantly reduced | 4.0 | 2 (≈ 3.62 µg/mL) | 2 (≈ 3.62 µg/mL) | 4 (≈ 7.24 µg/mL) | 4 (≈ 7.24 µg/mL) | 25 | 62 | 76.4 | 4 (≈ 7.24 µg/mL) | – | 3.5 to 4.0 | 3.7 | >128 | 3.5 (≈ 6.34 µg/mL) | significantly down-regulated | 81 | 98 |

Reference: publication PMC6928678, “Simplified Head-to-Tail Cyclic Polypeptides as Biomaterial-Associated Antimicrobials with Endotoxin Neutralizing and Anti-Inflammatory Capabilities” (International Journal of Molecular Sciences, 2019)
